Our source for the IC50 values is patent US20230031406A1, “COMPOUNDS AND COMPOSITIONS FOR TREATING CONDITIONS ASSOCIATED WITH NLRP ACTIVITY” (Novartis AG, priority 2018, published 2023).

Molecules are shown by their SMILES. Where two headings read alike, the source gives them in different places.

This test deals with PMA-differentiated THP-1 cells. Put plainly: IL-1β production in PMA-differentiated THP-1 cells stimulated with gramicidin (hTHP-1 assay containing 2% fetal bovine serum; Procedures 1 and 2). Format: cell-based, human. To be noted: 2% fetal bovine serum, class symbols. How it is done: The following protocol is suitable for testing the activity of the compounds disclosed herein. Procedure 1: IL-1β Production in PMA-Differentiated THP-1 Cells Stimulated with Gramicidin.
THP-1 cells were purchased from the American Type Culture Collection and sub-cultured according to instructions from the supplier. Cells were cultured in complete RPMI 1640 (containing 10% heat inactivated FBS, penicillin (100 units/ml) and streptomycin (100 μg/ml)), and maintained in log phase prior to experimental setup. Prior to the experiment, compounds were dissolved in dimethyl sulfoxide (DMSO) to generate a 30 mM stock. The compound stock was first pre-diluted in DMSO to 3, 0.34, 0.042 and 0.0083 mM intermediate concentrations and subsequently spotted using Echo550 liquid handler into an empty 384-well assay plate to achieve desired final concentration (e.g. 100, 33, 11, 3.7, 1.2, 0.41, 0.14, 0.046, 0.015, 0.0051, 0.0017 μM). DMSO was backfilled in the plate to achieve a final DMSO assay concentration of 0.37%. The plate was then sealed and stored at room temperature until required.
THP-1 cells were treated with PMA (Phorbol 12-myristate 13-acetate) (20 ng/ml) for 16-18 hours. On the day of the experiment the media was removed and adherent cells were detached with trypsin for 5 minutes. Cells were then harvested, washed with complete RPMI 1640, spun down, and resuspended in RPMI 1640 (containing 2% heat inactivated FBS, penicillin (100 units/ml) and streptomycin (100 μg/ml). The cells were plated in the 384-well assay plate containing the spotted compounds at a density of 50,000 cells/well (final assay volume 50 μl). Cells were incubated with compounds for 1 hour and then stimulated with gramicidin (5 μM) (Enzo) for 2 hours. Plates were then centrifuged at 340 g for 5 min. Cell free supernatant (40 μL) was collected using a 96—CHannel PlateMaster (Gilson) and the production of IL-1β was evaluated by HTRF (cisbio). The plates were incubated for 18 h at 4° C. and read using the preset HTRF program (donor emission at 620 nm, acceptor emission at 668 nm) of the SpectraMax i3x spectrophotometer (Molecular Devices, software SoftMax 6). A vehicle only control and a dose titration of CRID3 (100-0.0017 μM) were run concurrently with each experiment.
Procedure 2: IL-1β Production in PMA-Differentiated THP-1 Cells Stimulated with Gramicidin.
THP-1 cells were purchased from the American Type Culture Collection and sub-cultured according to instructions from the supplier. Prior to experiments, cells were cultured in complete RPMI 1640 (containing 10% heat inactivated FBS, penicillin (100 units/ml) and streptomycin (100 μg/ml)), and maintained in log phase prior to experimental setup. Prior to the experiment THP-1 were treated with PMA (Phorbol 12-myristate 13-acetate) (20 ng/ml) for 16-18 hours. Compounds were dissolved in dimethyl sulfoxide (DMSO) to generate a 30mM stock. On the day of the experiment the media was removed and adherent cells were detached with trypsin for 5 minutes. Cells were then harvested, washed with complete RPMI 1640, spun down, resuspended in RPMI 1640 (containing 2% heat inactivated FBS, penicillin (100 units/ml) and streptomycin (100 μg/ml). The cells were plated in a 384-well plate at a density of 50,000 cells/well (final assay volume […]). Compounds were first dissolved in assay medium to obtain a 5× top concentration of 500 μM. 10 step dilutions (1:3) were then undertaken in assay medium containing 1.67% DMSO. 5× compound solutions were added to the culture medium to achieve desired final concentration (e.g. 100, 33, 11, 3.7, 1.2, 0.41, 0.14, 0.046, 0.015, 0.0051, 0.0017 μM). Final DMSO concentration was at 0.37%. Cells were incubated with compounds for 1 hour and then stimulated with gramicidin (5 μM) (Enzo) for 2 hours. Plates were then centrifuged at 340 g for 5 min. Cell free supernatant (40 μL) was collected using a 96—CHannel PlateMaster (Gilson) and the production of IL-1β was evaluated by HTRF (cisbio). […]

Setting [1] is: Homo sapiens, THP-1, Table B2, read-out: hTHP-1 IC50.
Setting [2] is: Table B2, read-out: hTHP-1 IC50.
Setting [3] is: Homo sapiens, THP-1, Table B3, hTHP-1 assay, read-out: IC50.
The mark [4] stands for this setting: Table B3, hTHP-1 assay, read-out: IC50.
Setting [5] is: Table B1, read-out: Average IC50 of compounds in hTHP-1 assay: hTHP-1 IC50.

On to `CC(C)(O)c1nc(S(N)(=O)=NC(=O)Nc2c3c(nc4c2CCC4)CCC3)cs1` (single isomer, unassigned) [Compound 154a, (R) or (S)-N′-((1,2,3,5,6,7-hexahydrodicyclo-penta[b,e]pyridin-8-yl)carbamoyl)-2-(2-hydroxypropan-2-yl)thiazole-4-sulfonimidamide], for which the IC50 (Homo sapiens, THP-1, Table B1, read-out: Average IC50 of compounds in hTHP-1 assay: hTHP-1 IC50) lay in the range of 1000 to 5000 nM.

For `CC(C)c1nc2c(cc1NC(=O)N=[S@](N)(=O)c1cnc(C(C)(C)O)s1)CCC2` [Compound 601a], under setting [1], the IC50 is 200 to 1000 nM.

As for `CCc1nc2c(c(NC(=O)N=S(N)(=O)c3cc(C(C)(C)O)cs3)c1C1CC1)CCC2` (single isomer, unassigned) [Compound 654a, (S) or (R)-N′-((3-cyclopropyl-2-ethyl-6,7-dihydro-5H-cyclopenta[b]pyridin-4-yl)carbamoyl)-4-(2-hydroxypropan-2-yl)thiophene-2-sulfonimidamide], the IC50 under setting [2] fell in the range of 1000 to 5000 nM.

With `Cc1c(C(F)(F)F)nc2c(c1NC(=O)N=S(N)(=O)c1nn(-c3ccccc3)cc1F)CCC2` (stereo not drawn) [Example 749, 4-Fluoro-N′-((3-methyl-2-(trifluoromethyl)-6,7-dihydro-5H-cyclopenta[b]pyridin-4-yl)carbamoyl)-1-phenyl-1H-pyrazole-3-sulfonimidamide], the IC50 (Homo sapiens, THP-1, Table B4, read-out: hTHP-1 IC50) was in the range of 1000 to 5000 nM.

Take `CC(C)n1nc(S(N)(=O)=NC(=O)Nc2c3c(nc4c2CCC42CC2)CCC3)cc1CO` (stereo not drawn) [Example 595, 5-(Hydroxymethyl)-1-isopropyl-N′-((1′,5′,6′,7′-tetrahydro-2′H-spiro[cyclopropane-1,3′-dicyclopenta[b,e]pyridin]-8′-yl)carbamoyl)-1H-pyrazole-3-sulfonimidamide]: the IC50 under setting [3] was in the range of 1000 to 5000 nM.

As to `C[C@@H]1CCc2c1nc1c(c2NC(=O)N=[S@@](N)(=O)c2cc([C@@H](C)O)cs2)CCC1` (single isomer, unassigned) [Example 663, (R)-4-((R) or (S)-1-hydroxyethyl)-N′-(((R)-3-methyl-1,2,3,5,6,7-hexahydrodicyclopenta[b,e]pyridin-8-yl)carbamoyl) thiophene-2-sulfonimidamide], the IC50 under setting [3] was in the range of 40 to 200 nM.

As to `CC1(C)CCc2c1nc1c(c2NC(=O)N=S(N)(=O)c2cnc(C(O)(CO)CO)s2)CCC1` (stereo not drawn) [Compound 734, N′-((3,3-dimethyl-1,2,3,5,6,7-hexahydrodicyclopenta[b,e]pyridin-8-yl)carbamoyl)-2-(1,2,3-trihydroxypropan-2-yl)thiazole-5-sulfonimidamide], the IC50 under setting [1] fell in the range of 200 to 1000 nM.

In the case of `CCn1cc(F)c(S(N)(=O)=NC(=O)Nc2c3c(nc4c2CC[C@@H]4C)CCC3)n1` (single isomer, unassigned) [Example 711, (R) or (S)-1-ethyl-4-fluoro-N′-(((S)-3-methyl-1,2,3,5,6,7-hexahydrodicyclopenta[b,e]pyridin-8-yl)carbamoyl)-1H-pyrazole-3-sulfonimidamide], under setting [4], the IC50 lay within 40 to 200 nM.

As to `Cc1c(C2CC2)nc2c(c1NC(=O)N=S(N)(=O)c1sc(C(C)(C)O)cc1F)CCC2` (single isomer, unassigned) [Compound 174b, (S) or (R)-N′-((2-cyclopropyl-3-methyl-6,7-dihydro-5H-cyclopenta[b]pyridin-4-yl)carbamoyl)-3-fluoro-5-(2-hydroxypropan-2-yl)thiophene-2-sulfonimidamide], the IC50 under setting [5] is 40 to 200 nM.

For the compound `CCC1CCc2c1nc1c(c2NC(=O)N=S(N)(=O)c2sc(C(C)(C)O)cc2F)CCC1` (single isomer, unassigned) [Compound 671b, (S, R) or (S, S) or (R, S) or (R, R)-N′-((3-ethyl-1,2,3,5,6,7-hexahydrodicyclopenta [b,e]pyridin-8-yl)carbamoyl)-3-fluoro-5-(2-hydroxypropan-2-yl) thiophene-2-sulfonimidamide], under setting [2], the IC50 lay in the range of 5000 to 30000 nM.

Turning to `Cc1nc2c(c(NC(=O)N=S(N)(=O)c3ncc(C(C)(C)O)s3)c1C1CC1)CCC2` (stereo not drawn) [Compound 618, N′-((3-cyclopropyl-2-methyl-6,7-dihydro-5H-cyclopenta[b]pyridin-4-yl)carbamoyl)-5-(2-hydroxypropan-2-yl)thiazole-2-sulfonimidamide], the IC50 under setting [1] fell in the range of 1000 to 5000 nM.

For `CC(C)(O)c1csc(S(N)(=O)=NC(=O)Nc2c3c(nc4c2CCC4(C)C)CCC3)c1` (single isomer, unassigned) [Compound 127a, (S) or (R)-N′-((3,3-dimethyl-1,2,3,5,6,7-hexahydro-dicyclopenta[b,e]pyridin-8-yl)carbamoyl)-4-(2-hydroxypropan-2-yl)thiophene-2-sulfonimidamide], under setting [5], the IC50 was in the range of 1000 to 5000 nM.

Take `Cc1c(C2(F)CC2)nc2c(c1NC(=O)N=S(N)(=O)c1cc(C(C)(C)O)cs1)CCC2` (single isomer, unassigned) [Example 683, (R) or (S)-N′-((2-(1-fluorocyclopropyl)-3-methyl-6,7-dihydro-5H-cyclopenta[b]pyridin-4-yl)carbamoyl)-4-(2-hydroxypropan-2-yl)thiophene-2-sulfonimidamide]: under setting [3], the IC50 lay in the range of 1000 to 5000 nM.

`CC1CCc2c1nc1c(c2NC(=O)N=S(N)(=O)c2cc(C(C)(C)O)cs2)CCC1` (single isomer, unassigned) [Compound 141ba, (S,S) or (S,R)-4-(2-hydroxypropan-2-yl)-N′-((3-methyl-1,2,3,5,6,7-hexahy-drodicyclopenta[b,e]pyridin-8-yl)carbamoyl)thiophene-2-sulfonimidamide]: the IC50 under setting [5] lay in the range of 1000 to 5000 nM.

As to `Cc1sc(S(N)(=O)=NC(=O)Nc2c3c(nc4c2CCC4(C)C)CCC3)cc1C(C)(C)O` (single isomer, unassigned) [Compound 169b, (R) or (S)-N′-((3,3-dimethyl-1,2,3,5,6,7-hexahydro-dicyclopenta[b,e]pyridin-8-yl)carbamoyl)-4-(2-hydroxypropan-2-yl)-5-mehtylthiophene-2-sulfonimidamide], under setting [5], the IC50 was 40 to 200 nM.

Consider `Cc1nc2c(c(NC(=O)N=S(N)(=O)c3cc(C(C)(C)O)cs3)c1C1CC1)CCC2` (single isomer, unassigned) [Compound 623b, (S) or (R)-N′-((3-cyclopropyl-2-methyl-6,7-dihydro-5H-cyclopenta[b]pyridin-4-yl)carbamoyl)-4-(2-hydroxypropan-2-yl)thiophene-2-sulfonimidamide], for which the IC50 under setting [2] lay in the range of 5000 to 30000 nM.

For the compound `CCc1c(C(F)(F)F)nc2c(c1NC(=O)N=S(N)(=O)c1cc(C(C)(C)O)cs1)CCC2` (stereo not drawn) [Compound 609, N′-((3-ethyl-2-(trifluoromethyl)-6,7-dihydro-5H-cyclopenta[b]pyridin-4-yl)carbamoyl)-4-(2-hydroxypropan-2-yl)thiophene-2-sulfonimidamide], under setting [1], the IC50 fell in the range of 1000 to 5000 nM.

As for `Cc1nc2c(c(NC(=O)N=S(N)(=O)c3nn(C(F)F)cc3F)c1-c1ccccc1)CCC2` (single isomer, unassigned) [Example 728, (S) or (R)-1-(difluoromethyl)-4-fluoro-N′-((2-methyl-3-phenyl-6,7-dihydro-5H-cyclopenta[b]pyridin-4-yl)carbamoyl)-1H-pyrazole-3-sulfonimidamide], the IC50 under setting [4] fell in the range of 1000 to 5000 nM.

Usually IC50 stands for the concentration that inhibits the measured activity by half.
